Results published in publication PMC7211882, “Controlled release of basic fibroblast growth factor from a peptide biomaterial for bone regeneration” (Royal Society Open Science, 2020).

Molecular target: T1, Proteinase K (Parengyodontium album, UniProt P06873)
T1 construct: purchased RayBiotech, Norcross, GA, USA
Test: Peptide degradation by proteinase K
Type: in vitro ADME
Conditions: proteinase K 0.05 mg ml^-1, 37°C, 4 h, D-RADA16 0.2 mg ml^-1, intact peptide by HPLC (C18), three replicates
Description: Proteinase K solution (RayBiotech, Norcross, GA, USA) (0.05 mg ml^−1) was added in D-RADA16 and nHA/PA66/D-RADA16 groups, respectively. All samples were incubated at 37°C, and 400 µl aliquots were removed at various time points (1, 2, 4, 6, 8, 12, 24 and 48 h). The enzymatic reaction was terminated by the addition of phenylmethanesulfonyl fluoride (working concentration: 0.1 to 1 mM) and the concentration of the intact peptide were analysed by HPLC (LCMS-2020; Shimadzu, Kyoto, Japan) under the following conditions: Venusil XBP C18, 5 µm, 4.6 × 50 mm (Agela, Tianjin, China); sample injection volume: 100 µl; gradient elution: A, 0.035% trifluoroacetic acid (TFA) in water; and B, 0.035% TFA in acetonitrile/water (80 : 20, vol/vol). A gradient of 10–100% B in 10 min was conducted. The experiment was conducted in three replicates.
Proteinase K, a highly non-specific proteolytic enzyme, was used to examine the stability of D-RADA16 in the various composites. The concentration of each D-RADA16 was set to 0.2 mg ml^−1. And after 4 h, only 30–40% of the peptide remained in the control samples, whereas over 50% of the peptide still remained in the experimental samples. Similar results were observed after 24 and 48 h (figure 1d).

T1 sequence (P06873 106-384): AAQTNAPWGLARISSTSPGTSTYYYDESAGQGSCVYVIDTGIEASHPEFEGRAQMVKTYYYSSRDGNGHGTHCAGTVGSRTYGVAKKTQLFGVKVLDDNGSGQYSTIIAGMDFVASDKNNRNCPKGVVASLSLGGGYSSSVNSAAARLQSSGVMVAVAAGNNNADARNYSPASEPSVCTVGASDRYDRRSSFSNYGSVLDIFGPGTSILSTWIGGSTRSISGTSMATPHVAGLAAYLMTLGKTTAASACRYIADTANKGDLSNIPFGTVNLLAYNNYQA

CC(=O)N[C@H](CCCNC(=N)N)C(=O)N[C@H](C)C(=O)N[C@H](CC(=O)O)C(=O)N[C@H](C)C(=O)N[C@H](CCCNC(=N)N)C(=O)N[C@H](C)C(=O)N[C@H](CC(=O)O)C(=O)N[C@H](C)C(=O)N[C@H](CCCNC(=N)N)C(=O)N[C@H](C)C(=O)N[C@H](CC(=O)O)C(=O)N[C@H](C)C(=O)N[C@H](CCCNC(=N)N)C(=O)N[C@H](C)C(=O)N[C@H](CC(=O)O)C(=O)N[C@H](C)C(N)=O [D-RADA16, Ac-RADARADARADARADA-CONH2]
intact peptide remaining: 30–40%
